Test results: patent US6773895B2, “Method for identifying substances which positively influence inflammatory conditions of chronic inflammatory airway diseases” (Boehringer Ingelheim Pharma KG, priority 2000, dated 2004)

Columns and labels:
MonoMac6 cells = assay: Chemotaxis (migration) of MonoMac6 cells, 48-well chemotaxis chamber; assay type: cell-based, human; conditions: PMA-treated MonoMac6 cells, 4 hours of migration, fold increase in migrated cells over control medium
Protocol: Since an increased invasion of macrophages in peripheral airways of COPD patients can be observed, we tested the chemotactic ability of MonoMac6 cells which serve as a cell culture model for alveolar macrophages. Chemotaxis of MonoMac6 is determined by administering different ligands for FPRL-1.
MonoMac6 cells are treated with PMA for 24-30 hours in order to induce an activation state of the cells. Cells are harvested, washed twice with RPMI 1640 without supplements, and seeded at a density of 500,000 cells/well (24-well plate) in the presence of 10 nM PMA. After 24-30 hours cells are released from the substratum by repeated rinsing with a pipet, spun down, counted and adjusted to a density of 1×10^6 cells/ml of RPMI 1640 media without supplements but in the presence of 10 nM PMA. Chemotaxis is performed in a 48-well chemotaxis chamber (Neuroprobe Inc.) and polycarbonate membranes with a pore size of 8 μm (Neuroprobe Inc.). The lower wells of the chamber are filled with 28 μl of different concentrations of lipoxin A4, W-peptide, MCP-1 as a positive control, and RPMI 1640 media without supplements (including 10 nM PMA) as a negative control. The lower wells are covered with the polycarbonate membrane and the upper compartments of the chamber are filled with 50 μl of the cell suspension (50,000 cells per well). After 4 hours of migration at 37° C., 5% CO2 the cells on the upper part of the membrane are scraped off and the cells attached at the lower part of the membrane are stained with the Diff Quik Staining Set (Dade Behring) according to the manufacturer's protocol. Stained cells are counted in 6 to 8 high power fields at a magnification of 250× with a light microscope. The migration index represents the fold increase in the number of cells migrated in response to the chemoattractant over control medium.

monocytes = conditions: cited from earlier work
neutrophils = conditions: cited from earlier work
human bronchi = conditions: cited from earlier work
TNFα = assay: Expression of TNFα in MonoMac 6 cells after stimulation with FPRL-1 ligands (TaqMan); conditions: 200 nM
Protocol: (§1) In order to examine the effects of ligands for FPRL-1, MonoMac6 cells are seeded at a density of 250,000 cells/ml in 24-well plates (with 2 ml per well), grown for 24 hours at 37° C., 5% CO2 in a humidified atmosphere before stimulation with 200 nM lipoxin A4 (Biomol), W-peptide (1 μM) (synthesized by Metabion, Martinsried), and LPS (Sigma) as a positive control. Cells are harvested at different time points, and total RNA is isolated as described above using the Qiagen RNeasy Total RNA Isolation Kit (Qiagen).
(§2) The RNA is used for Taqman analysis in order to monitor the expression of inflammatory markers like TNFα, IL-8, and MMP-12.

IL-8 = assay: Expression of IL-8 in MonoMac 6 cells after stimulation with FPRL-1 ligands (TaqMan); conditions: 200 nM
Protocol: as §1, §2

MMP-12 = assay: Expression of MMP-12 in MonoMac 6 cells after stimulation with FPRL-1 ligands (TaqMan); conditions: 200 nM
Protocol: as §1, §2

FPRL-1 = assay: Expression of FPRL-1 in MonoMac6 cells after stimulation (TaqMan analysis); assay type: cell-based, human; conditions: 10 nM PMA
Protocol: MonoMac6 cells are cultivated in 24-well plates in RPMI 1640 media, supplemented with 10% FCS (low endotoxin), 2 mM glutamine, 1× non-essential amino acids, 200 U/ml penicillin, 200 μg/ml streptomycin, and 5 ml OPI media supplement (Sigma). Cells are grown to a density of 600,000 cells per well (2 ml media) and stimulated with 10 nM PMA (phorbol 12-myristate 13-acetate) (Sigma), or 20 ng/ml LPS (lipopolysaccharides from Salmonella minnesota Re595) (Sigma). For smoke exposure, cells are incubated in media enriched with smoke for 10 minutes at 37° C., 5% CO2 at a density of 1×10^6 cells/ml. Enrichment of RPMI 1640 media with smoke is performed with the smoke of two cigarettes. The smoke of the cigarettes is pulled into a 50 ml syringe (about 20 volumes of a 50-ml syringe per cigarette) and then perfused into 100 ml of RPMI 1640 media without supplements. Afterwards, the pH of the smoke-enriched media is adjusted to 7.4 and the media is sterilized through a 0.2 μm filter before use. After the exposure with smoke cells are washed at least twice with RPMI 1640 in order to remove residual smoke particles. Then cells are seeded in 24-well plates with 400,000-600,000 cells per well filled with 2 ml of fresh RPMI 1640 media including the supplements mentioned above.
Both cell types are cultivated at 37° C., 5% CO2 in a humidified atmosphere and cells are harvested at various time points in order to monitor time-dependent effects. Cells are spun down and washed with PBS, resuspended in 400 μl of RLT buffer (Qiagen RNeasy Total RNA Isolation Kit) with 143 mM β-mercaptoethanol, the DNA is sheared with a 20 g needle for at least 5 times and stored at −70° C.
Total RNAs are isolated with the Qiagen RNeasy Total RNA Isolation Kit (Qiagen) according to the manufacturer's protocol. Purified RNA is digested with RNase-free DNase (Qiagen) and used for TaqMan analysis.
Taqman analysis is used to determine mRNA-levels for FPRL-1 in cell lines after treatment with and without various stimuli at different time points. Total RNA isolated from U937 cells that were treated for 3 days with […] is used in order to optimize reaction conditions for determining the mRNA-levels of FPRL-1 and setting standard curves for FPRL-1 and GAPDH (glyceraldehyde-3-phosphate dehydrogenase) as a housekeeping gene. Quantification of FPRL-1 is done with the following primers: Forward primer (rhHM63 668FP, SEQ ID NO:22), Reverse primer (hHM63 525(+)RP, SEQ ID NO:23) and TaqMan probe (rhHM63 629(−)TP, SEQ ID NO:24) labeled with reporter dye FAM at the 5′ end and quencher dye TAMRA at the 3′ end. The mRNA-levels for GAPDH are determined with a predeveloped kit for GAPDH “TaqMan GAPDH Control Reagents” (P/N 402869) from PE Applied Biosystems. The GAPDH probe is labeled with JOE as the reporter dye and TAMRA as the quencher dye. RT-PCR reactions are performed with the “TaqMan EZ RT-PCR Core Reagents” (P/N N808-0236) kit from Perkin Elmer. Standard curves for FPRL-1 and GAPDH are performed with increasing concentrations of RNA from U937 cells treated with 1 μM retinoic acid ranging from 0, 5, 10, 25, 50 to 100 ng per assay. Reaction mixes contain 1× TaqMan EZ-buffer, 3 mM Mn(Oac)2, 300 μM dATP, dCTP, dGTP, and 600 μM dUTP, 2.5 U rTth DNA polymerase, 0.25 U AmpErase UNG in a total volume of 25 μl. For analysis of FPRL-1 reaction mixes include 300 nM of rhHM63 668(−)FP and hHM63 525(+)RP and 100 nM of rhHM63 629(−)TP. The primer concentrations for determining GAPDH levels are 200 nM for each primer and 100 nM for the Taqman probe. In order to determine mRNA levels for FPRL-1 and GAPDH in human subjects and cell lines, 16 to 50 ng RNA per reaction are used. All samples are run in triplicate. The reactions are performed with “MicroAmp Optical 96-well reaction plates” sealed with “MicroAmp Optical Caps” (PE Applied Biosystems) in an ABI PRISM 7700 Sequence Detection System (PE Applied Biosystems). […]

## CCCCC[C@H](O)/C=C/C=C\C=C\C=C\[C@@H](O)[C@@H](O)CCCC(=O)O [Lipoxin A4, lipoxin A4]
MonoMac6 cells; 10 nM
  Migration Index: 0.86
MonoMac6 cells; 100 nM
  Migration Index: 1.31
MonoMac6 cells; 1 μM
  Migration Index: 1.68
monocytes
  chemotaxis, adherence and calcium release in monocytes: stimulates
neutrophils
  chemotaxis and adhesion in neutrophils: inhibits
  transmigration through epithelial cells: downregulates
Human bronchi
  contraction of human bronchi: dose-dependent contraction
TNFα; t 0 h
  Expression of TNFα, Fold Induction: 1.00 fold
TNFα; t 3 h
  Expression of TNFα, Fold Induction: 2.43 fold
IL-8; t 0 h
  Expression of IL-8, Fold Induction: 1.00 fold
IL-8; t 3 h
  Expression of IL-8, Fold Induction: 1.99 fold
MMP-12; t 0 h
  Expression of MMP-12, Fold Induction: 1.00 fold
MMP-12; t 3 h
  Expression of MMP-12, Fold Induction: 1.42 fold

## CCCCCCCCCCCCCC(=O)O[C@@H]1[C@@H](C)[C@@]2(O)[C@@H](C=C(CO)C[C@]3(O)C(=O)C(C)=C[C@@H]23)[C@@H]2C(C)(C)[C@]12OC(C)=O [PMA, phorbol 12-myristate 13-acetate]
FPRL-1; t 0 h
  ng FPRL-1 mRNA/ ng GAPDH mRNA: 0.00 ng FPRL-1 mRNA/ ng GAPDH mRNA
FPRL-1; t 1 h
  ng FPRL-1 mRNA/ ng GAPDH mRNA: 0.00 ng FPRL-1 mRNA/ ng GAPDH mRNA
FPRL-1; t 3 h
  ng FPRL-1 mRNA/ ng GAPDH mRNA: 0.00 ng FPRL-1 mRNA/ ng GAPDH mRNA
FPRL-1; t 12 h
  ng FPRL-1 mRNA/ ng GAPDH mRNA: 0.00 ng FPRL-1 mRNA/ ng GAPDH mRNA
FPRL-1; t 24 h
  ng FPRL-1 mRNA/ ng GAPDH mRNA: 0.00 ng FPRL-1 mRNA/ ng GAPDH mRNA
FPRL-1; t 48 h
  ng FPRL-1 mRNA/ ng GAPDH mRNA: 0.43 ng FPRL-1 mRNA/ ng GAPDH mRNA
FPRL-1; t 72 h
  ng FPRL-1 mRNA/ ng GAPDH mRNA: 0.01 ng FPRL-1 mRNA/ ng GAPDH mRNA

## CSCC[C@H](NC(=O)[C@H](Cc1ccc(O)cc1)NC(=O)[C@H](CCCCN)NC(=O)[C@@H](N)Cc1c[nH]c2ccccc12)C(=O)N[C@H](C(=O)N[C@H](CCSC)C(N)=O)C(C)C [W-peptide, W-K-Y-M-V-m]
MonoMac6 cells; 10 nM
  Migration Index: 0.95
MonoMac6 cells; 100 nM
  Migration Index: 1.23
MonoMac6 cells; 1 μM
  Migration Index: 2.46

## monocyte chemotactic protein 1 [MCP-1]
MonoMac6 cells; 20 ng/ml
  Migration Index: 2.59
